For one data set, the system named is bone mineral density. Put plainly: Osteoporosis model in ovariectomized rats, bone mineral density. Format: in vivo, Sprague Dawley rats. The conditions noted are these: OVX rats treated orally daily for 35 days, in 20% hydroxypropyl β-cyclodextrin; femur x-ray image analysis and tibia quantitative computed tomography. From the text:
Seventy-five day old female Sprague Dawley rats (weight range of 200 g to 225 g) are obtained from Charles River Laboratories (Portage, Mich.). The animals are either bilaterally ovariectomized (OVX) or exposed to a Sham surgical procedure at Charles River Laboratories, and then shipped after one week. Upon arrival, they are housed in metal hanging cages in groups of 3 or 4 per cage and have ad libitum access to food (calcium content approximately 0.5%) and water for one week. Room temperature is maintained at 22.2°±1.70° C. with a minimum relative humidity of 40%. The photoperiod in the room is 12 hours light and 12 hours dark.
Following the General Procedure, infra, the rats are treated daily for 35 days (6 rats per treatment group) and sacrificed by carbon dioxide asphyxiation on the 36th day. The 35 day time period is sufficient to allow maximal reduction in bone density, measured as described herein. At the time of sacrifice, the uteri are removed, dissected free of extraneous tissue, and the fluid contents are expelled before determination of wet weight in order to confirm estrogen deficiency associated with complete ovariectomy. […]
The right femurs are excised and digitilized x-rays generated and analyzed by an image analysis program (NIH image) at the distal metaphysis. The proximal aspect of the tibiae from these animals are also scanned by quantitative computed tomography.

Molecule `COc1ccc(-c2cc3ccc(OC)cc3s2)cc1` [Example 1, 2-(4-Methoxyphenyl)-6-Methoxybenzo[b]thiophene] came in with a melting point of 193 to 194 °C.

`C#C[C@]1(O)CC[C@H]2[C@@H]3CCc4cc(O)ccc4[C@H]3CC[C@@]21C` [ethynyl estradiol, 17-α-ethynyl estradiol]: the “loss of bone mineral density” value in the data set on bone mineral density is given as “a reduction in the loss of bone mineral density”.

For orientation: melting point means the temperature of the solid-liquid transition.

These data come from patent US6395769B1, “2-arylbenzo[b]thiophenes useful for the treatment of estrogen deprivation syndrome” (Eli Lilly and Company, priority 1997, dated 2002).
